In PubChem BioAssay AID2060882 (Molecular Pharmacology Branch, DTP, NCI, 2025):
Values belong to the molecule of their own block, whether it stands above or below them.

Test system: 898857-211-R-J1-PDC complex spheroids, growth % test/control
Experiment: Anticancer human tumor 898857-211-R-J1-PDC patient-derived melanoma cell line growth inhibition [RAS]
Conditions: for IC50: curve of first compound; for viability, T/C: stronger effect = lower value
Procedure, shortened: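 Tumour cells grown as complex spheroids with HUVEC endothelial cells and mesenchymal stem cells, treated with RAS pathway inhibitor combinations. Each agent spans half-log steps from near clinical Cmax, or 10 microM where Cmax is unknown.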

[1] = second compound 0.0316 µM, first compound 0.00316 µM
[2] = second compound 0.0316 µM, first compound 0.01 µM
[3] = second compound 0.0316 µM, first compound 0.0316 µM
[4] = second compound 0.0316 µM, first compound 0.1 µM
[5] = second compound 0.0316 µM, first compound 0.316 µM
[6] = second compound 0.0316 µM, first compound 1 µM
[7] = second compound 0.1 µM, first compound 0.00316 µM
[8] = second compound 0.1 µM, first compound 0.01 µM
[9] = second compound 0.1 µM, first compound 0.0316 µM
[10] = second compound 0.1 µM, first compound 0.1 µM
[11] = second compound 0.1 µM, first compound 0.316 µM
[12] = second compound 0.1 µM, first compound 1 µM
[13] = second compound 0.316 µM, first compound 0.00316 µM
[14] = second compound 0.316 µM, first compound 0.01 µM
[15] = second compound 0.316 µM, first compound 0.0316 µM
[16] = second compound 0.316 µM, first compound 0.1 µM
[17] = second compound 0.316 µM, first compound 0.316 µM
[18] = second compound 0.316 µM, first compound 1 µM
[19] = second compound 1 µM, first compound 0.00316 µM
[20] = second compound 1 µM, first compound 0.01 µM
[21] = second compound 1 µM, first compound 0.0316 µM
[22] = second compound 1 µM, first compound 0.1 µM
[23] = second compound 1 µM, first compound 0.316 µM
[24] = second compound 1 µM, first compound 1 µM
[25] = second compound 3.16 µM, first compound 0.00316 µM
[26] = second compound 3.16 µM, first compound 0.01 µM
[27] = second compound 3.16 µM, first compound 0.0316 µM
[28] = second compound 3.16 µM, first compound 0.1 µM
[29] = second compound 3.16 µM, first compound 0.316 µM
[30] = second compound 3.16 µM, first compound 1 µM
[31] = second compound 10 µM, first compound 0.00316 µM
[32] = second compound 10 µM, first compound 0.01 µM
[33] = second compound 10 µM, first compound 0.0316 µM
[34] = second compound 10 µM, first compound 0.1 µM
[35] = second compound 10 µM, first compound 0.316 µM
[36] = second compound 10 µM, first compound 1 µM
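Further: spheroids exposed to compound for seven days before readout.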
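Wherever viability, T/C is given: 100% = DMSO vehicle control wells.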

IC50 (second compound 0.0316 µM): > 1000 nM
IC50 (second compound 0.1 µM): > 1000 nM
IC50 (second compound 0.316 µM): > 1000 nM
IC50 (second compound 1 µM): > 1000 nM
IC50 (second compound 3.16 µM): > 1000 nM
IC50 (second compound 10 µM): < 3.16 nM
SMILES: C=CC(=O)N1CCN(c2nc(OCC3CCCN3C)nc3c(F)c(-c4nc(N)cc(C)c4C(F)(F)F)c(Cl)cc23)C(C)C1 (stereo not drawn) + C#Cc1c(F)ccc2cc(O)cc(-c3ncc4c(N5CC6CCC(C5)N6)nc(OCC56CCCN5CC(F)C6)nc4c3F)c12
viability, T/C [1]: 107%
viability, T/C [2]: 92.9%
viability, T/C [3]: 103%
viability, T/C [4]: 103%
viability, T/C [5]: 117%
viability, T/C [6]: 118%
viability, T/C [7]: 109%
viability, T/C [8]: 107%
viability, T/C [9]: 109%
viability, T/C [10]: 105%
viability, T/C [11]: 126%
viability, T/C [12]: 117%
viability, T/C [13]: 95.8%
viability, T/C [14]: 91.4%
viability, T/C [15]: 100%
viability, T/C [16]: 96%
viability, T/C [17]: 114%
viability, T/C [18]: 129%
viability, T/C [19]: 104%
viability, T/C [20]: 102%
viability, T/C [21]: 101%
viability, T/C [22]: 104%
viability, T/C [23]: 105%
viability, T/C [24]: 98.9%
viability, T/C [25]: 99.4%
viability, T/C [26]: 93.5%
viability, T/C [27]: 86.6%
viability, T/C [28]: 106%
viability, T/C [29]: 116%
viability, T/C [30]: 87.3%
viability, T/C [31]: 56.5%
viability, T/C [32]: 39.5%
viability, T/C [33]: 41.1%
viability, T/C [34]: 50.5%
viability, T/C [35]: 21.3%
viability, T/C [36]: 1.25%

IC50 (second compound 0.0316 µM): < 31.6 nM
IC50 (second compound 0.1 µM): < 31.6 nM
IC50 (second compound 0.316 µM): < 31.6 nM
IC50 (second compound 1 µM): < 31.6 nM
IC50 (second compound 3.16 µM): < 31.6 nM
IC50 (second compound 10 µM): < 31.6 nM
SMILES: CC(=O)OC12COC1CC(O)C1(C)C(=O)C(O)C3=C(C)C(OC(=O)C(O)C(NC(=O)OC(C)(C)C)c4ccccc4)CC(O)(C(OC(=O)c4ccccc4)C21)C3(C)C (stereo not drawn) + C#Cc1c(F)ccc2cc(O)cc(-c3ncc4c(N5CC6CCC(C5)N6)nc(OCC56CCCN5CC(F)C6)nc4c3F)c12
viability, T/C [3]: 12%
viability, T/C [4]: 12.8%
viability, T/C [5]: 12.1%
viability, T/C [6]: 16%
viability, T/C (second compound 0.0316 µM, first compound 3.16 µM): 26.6%
viability, T/C (second compound 0.0316 µM, first compound 10 µM): 27.4%
viability, T/C [9]: 13%
viability, T/C [10]: 12.1%
viability, T/C [11]: 14.1%
viability, T/C [12]: 17.1%
viability, T/C (second compound 0.1 µM, first compound 3.16 µM): 25.5%
viability, T/C (second compound 0.1 µM, first compound 10 µM): 21.1%
viability, T/C [15]: 16.4%
viability, T/C [16]: 15.8%
viability, T/C [17]: 12.1%
viability, T/C [18]: 17.7%
viability, T/C (second compound 0.316 µM, first compound 3.16 µM): 25.2%
viability, T/C (second compound 0.316 µM, first compound 10 µM): 21.3%
viability, T/C [21]: 14.2%
viability, T/C [22]: 12.7%
viability, T/C [23]: 12.8%
viability, T/C [24]: 16.5%
viability, T/C (second compound 1 µM, first compound 3.16 µM): 15.7%
viability, T/C (second compound 1 µM, first compound 10 µM): 24.7%
viability, T/C [27]: 13.3%
viability, T/C [28]: 16.7%
viability, T/C [29]: 16.7%
viability, T/C [30]: 20.4%
viability, T/C (second compound 3.16 µM, first compound 3.16 µM): 24.6%
viability, T/C (second compound 3.16 µM, first compound 10 µM): 27.6%
viability, T/C [33]: 7.03%
viability, T/C [34]: 9%
viability, T/C [35]: 5.98%
viability, T/C [36]: 9.12%
viability, T/C (second compound 10 µM, first compound 3.16 µM): 7.68%
viability, T/C (second compound 10 µM, first compound 10 µM): 7.34%

IC50 (second compound 0.0316 µM): 4.7 nM
IC50 (second compound 0.1 µM): 4.58 nM
IC50 (second compound 0.316 µM): 5.12 nM
IC50 (second compound 1 µM): 4.9 nM
IC50 (second compound 3.16 µM): 5.35 nM
IC50 (second compound 10 µM): 1.04 nM
SMILES: CCc1c2c(nc3ccc(O)cc13)-c1cc3c(c(=O)n1C2)COC(=O)[C@]3(O)CC + C#Cc1c(F)ccc2cc(O)cc(-c3ncc4c(N5CC6CCC(C5)N6)nc(OCC56CCCN5CC(F)C6)nc4c3F)c12
viability, T/C (second compound 0.0316 µM, first compound 0.000949 µM): 109%
viability, T/C (second compound 0.0316 µM, first compound 0.003 µM): 63.3%
viability, T/C (second compound 0.0316 µM, first compound 0.00949 µM): 30%
viability, T/C (second compound 0.0316 µM, first compound 0.03 µM): 11.4%
viability, T/C (second compound 0.0316 µM, first compound 0.0949 µM): 9.62%
viability, T/C (second compound 0.0316 µM, first compound 0.3 µM): 9.76%
viability, T/C (second compound 0.1 µM, first compound 0.000949 µM): 94.1%
viability, T/C (second compound 0.1 µM, first compound 0.003 µM): 61.4%
viability, T/C (second compound 0.1 µM, first compound 0.00949 µM): 30.9%
viability, T/C (second compound 0.1 µM, first compound 0.03 µM): 10.3%
viability, T/C (second compound 0.1 µM, first compound 0.0949 µM): 8.95%
viability, T/C (second compound 0.1 µM, first compound 0.3 µM): 8.77%
viability, T/C (second compound 0.316 µM, first compound 0.000949 µM): 93%
viability, T/C (second compound 0.316 µM, first compound 0.003 µM): 67.7%
viability, T/C (second compound 0.316 µM, first compound 0.00949 µM): 30.2%
viability, T/C (second compound 0.316 µM, first compound 0.03 µM): 8.72%
viability, T/C (second compound 0.316 µM, first compound 0.0949 µM): 7.89%
viability, T/C (second compound 0.316 µM, first compound 0.3 µM): 9.18%
viability, T/C (second compound 1 µM, first compound 0.000949 µM): 86.7%
viability, T/C (second compound 1 µM, first compound 0.003 µM): 62.4%
viability, T/C (second compound 1 µM, first compound 0.00949 µM): 33.9%
viability, T/C (second compound 1 µM, first compound 0.03 µM): 11.3%
viability, T/C (second compound 1 µM, first compound 0.0949 µM): 8.52%
viability, T/C (second compound 1 µM, first compound 0.3 µM): 8.89%
viability, T/C (second compound 3.16 µM, first compound 0.000949 µM): 87.2%
viability, T/C (second compound 3.16 µM, first compound 0.003 µM): 71.3%
viability, T/C (second compound 3.16 µM, first compound 0.00949 µM): 29%
viability, T/C (second compound 3.16 µM, first compound 0.03 µM): 10.9%
viability, T/C (second compound 3.16 µM, first compound 0.0949 µM): 9.14%
viability, T/C (second compound 3.16 µM, first compound 0.3 µM): 8.78%
viability, T/C (second compound 10 µM, first compound 0.000949 µM): 51.6%
viability, T/C (second compound 10 µM, first compound 0.003 µM): 29.9%
viability, T/C (second compound 10 µM, first compound 0.00949 µM): 15%
viability, T/C (second compound 10 µM, first compound 0.03 µM): 10.1%
viability, T/C (second compound 10 µM, first compound 0.0949 µM): 9.3%
viability, T/C (second compound 10 µM, first compound 0.3 µM): 7.33%

IC50 (second compound 0.0316 µM): 7.32 nM
IC50 (second compound 0.1 µM): 7.52 nM
IC50 (second compound 0.316 µM): 7.89 nM
IC50 (second compound 1 µM): 7.11 nM
IC50 (second compound 3.16 µM): 7.22 nM
IC50 (second compound 10 µM): < 3.16 nM
SMILES: Nc1ccn(C2OC(CO)C(O)C2(F)F)c(=O)n1 (stereo not drawn) + C#Cc1c(F)ccc2cc(O)cc(-c3ncc4c(N5CC6CCC(C5)N6)nc(OCC56CCCN5CC(F)C6)nc4c3F)c12
viability, T/C [1]: 105%
viability, T/C [2]: 29.7%
viability, T/C [3]: 6.72%
viability, T/C [4]: 5%
viability, T/C [5]: 5.45%
viability, T/C [6]: 5.38%
viability, T/C [7]: 92.7%
viability, T/C [8]: 36%
viability, T/C [9]: 7.32%
viability, T/C [10]: 5.55%
viability, T/C [11]: 5.77%
viability, T/C [12]: 5.83%
viability, T/C [13]: 97.4%
viability, T/C [14]: 37.7%
viability, T/C [15]: 7.43%
viability, T/C [16]: 4.86%
viability, T/C [17]: 5.48%
viability, T/C [18]: 5.75%
viability, T/C [19]: 91.7%
viability, T/C [20]: 32.4%
viability, T/C [21]: 8.35%
viability, T/C [22]: 5.57%
viability, T/C [23]: 4.9%
viability, T/C [24]: 5.48%
viability, T/C [25]: 99%
viability, T/C [26]: 30.7%
viability, T/C [27]: 7.65%
viability, T/C [28]: 6.3%
viability, T/C [29]: 5.81%
viability, T/C [30]: 5.63%
viability, T/C [31]: 46.4%
viability, T/C [32]: 25.8%
viability, T/C [33]: 7.48%
viability, T/C [34]: 6.16%
viability, T/C [35]: 6.42%
viability, T/C [36]: 5.33%
